The values that follow come from publication PMC6002460, “Pharmacological evaluation of new constituents of “Spice”: synthetic cannabinoids based on indole, indazole, benzimidazole and carbazole scaffolds” (Forensic Toxicology, 2018).

Assay [1] has as its target T1, human CB1 receptor (Homo sapiens, UniProt P21554).
T1 construct: expressed in transfected cells; host or cells: CHO cells (membrane preparations)
Details: method as in PMID 27429655. The conditions noted are these: previous study; cited from earlier work.

The target in assay [2] is T2, human GPR55 (Homo sapiens, UniProt Q9Y2T6).
T2 construct: host or cells: CHO cells
As to conditions: previous study; cited from earlier work.

The target of assay [3] is T1, human CB1 receptor. Description: cAMP accumulation assay, CHO cells stably expressing CB1. The assay is classed as cell-based. The method, then:
(§1) cAMP accumulation assays were performed also as previously described. Briefly, CHO cells stably expressing the respective human CB receptor subtype CB1 or CB2 were seeded overnight. […] After incubation for 15 min the buffer was removed, and the cells were lyzed. The amount of cAMP was determined in a radioligand binding assay by incubating 50 µL of the cell lysate with 3 nM [^3H]cAMP in the presence of protein preparations from bovine adrenal glands (cAMP binding protein). Bound and unbound radioligand were separated by rapid filtration through GF/B filters, and radioactivity was determined by liquid scintillation counting. To test for antagonistic activity, test compounds were added to Hank’s buffered salt solution (HBSS) containing 10% dimethyl sulfoxide (DMSO), 10 min after the application of Ro-20-1724, and the mixture was incubated for 20 min at 37 °C.
(§2) As a next step, we investigated the compounds in cAMP accumulation assays, to obtain information on their functionality (Fig. 3). CB receptors are Gi protein-coupled and thus reduce the levels of cAMP in the cells upon activation.
A general note: Changes in cAMP serve as a functional read-out for many G protein-coupled receptors.

The subject of assay [4] is rats. The arrangement: method as in PMID 27421060. The conditions noted are these: cited from earlier work.
Assay [5] concerns the target CB1 receptor. As to conditions: membrane potential assay; ref Banister et al. [38]; cited from earlier work.
Assay [6] concerns the target CB2 receptor. The conditions noted are these: membrane potential assay; ref Banister et al. [38]; cited from earlier work.
For assay [7], the target named is T3, human GPR18 (Homo sapiens, UniProt Q14330).
T3 construct: host or cells: CHO cells
T3 sequence (Q14330 1-331): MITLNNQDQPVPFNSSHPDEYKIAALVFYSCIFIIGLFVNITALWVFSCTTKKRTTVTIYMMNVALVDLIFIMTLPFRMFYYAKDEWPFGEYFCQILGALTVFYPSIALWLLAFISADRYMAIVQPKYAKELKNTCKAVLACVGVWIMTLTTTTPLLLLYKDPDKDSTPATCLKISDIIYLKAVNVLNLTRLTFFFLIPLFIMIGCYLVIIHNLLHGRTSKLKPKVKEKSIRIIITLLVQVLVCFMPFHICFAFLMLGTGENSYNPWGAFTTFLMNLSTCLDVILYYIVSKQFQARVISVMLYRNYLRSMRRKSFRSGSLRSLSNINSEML
Put plainly: β-Arrestin PathHunter assay, recombinant CHO cells expressing GPR18. The assay is classed as cell-based. As to conditions: for Human GPR18 % activation / Human GPR18 % inhibition: value in parentheses.

For assay [8], the target named is T1, human CB1 receptor. Put plainly: biochemical. The assay is classed as binding. As to conditions: [3H]CP55,940 0.1 nM, CHO cell membranes; read-out: Ki ± SEM Human CB1.
The target of assay [9] is T4, human CB2 receptor (Homo sapiens, UniProt P34972).
T4 construct: expressed in transfected cells; host or cells: CHO cells (membrane preparations)
Put plainly: cAMP accumulation assay, CHO cells stably expressing CB2. The assay is classed as cell-based. The method, then:
as §1, §2

Assay [10] concerns the target T2, human GPR55. Put plainly: β-Arrestin PathHunter assay, recombinant CHO cells expressing GPR55. The assay is classed as cell-based. The conditions noted are these: for Human GPR55 % inhibition: antagonist mode versus LPI 1 µM.
In assay [11] the target is T4, human CB2 receptor. Description: biochemical. The assay is classed as binding. The conditions noted are these: [3H]CP55,940 0.1 nM, CHO cell membranes; read-out: Ki ± SEM Human CB2.
The target of assay [12] is CB2 receptor. Details: method as in Wiley et al. [41]. As to conditions: versus 0.62 nM [3H]CP55,940; ref Wiley et al. [41]; cited from earlier work.
Assay [13] deals with CB1 receptor. Details: method as in Wiley et al. [41]. The conditions noted are these: versus 0.62 nM [3H]CP55,940; ref Wiley et al. [41]; cited from earlier work.
Details of assay [14]: method as in Wiley et al. [41]. As to conditions: receptor subtype not stated; ref Wiley et al. [41]; read-out: EC50 in [35S]GTPγS assays; cited from earlier work.
Where [15] appears, read: compound at 10 µM, normalized to CP55,940 (1 µM).

Like-named read-outs stand apart in the source and are kept apart here.

T4 sequence (P34972 whole entry): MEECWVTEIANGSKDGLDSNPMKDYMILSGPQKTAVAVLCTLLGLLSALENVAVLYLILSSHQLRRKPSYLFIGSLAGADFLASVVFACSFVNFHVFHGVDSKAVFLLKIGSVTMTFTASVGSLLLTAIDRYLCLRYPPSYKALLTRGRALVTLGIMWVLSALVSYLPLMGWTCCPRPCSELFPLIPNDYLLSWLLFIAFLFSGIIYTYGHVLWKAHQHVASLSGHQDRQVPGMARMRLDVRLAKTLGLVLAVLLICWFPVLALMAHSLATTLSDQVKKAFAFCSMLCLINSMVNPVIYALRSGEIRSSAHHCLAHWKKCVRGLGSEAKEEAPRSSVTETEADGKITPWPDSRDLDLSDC
T2 sequence (Q9Y2T6 whole entry): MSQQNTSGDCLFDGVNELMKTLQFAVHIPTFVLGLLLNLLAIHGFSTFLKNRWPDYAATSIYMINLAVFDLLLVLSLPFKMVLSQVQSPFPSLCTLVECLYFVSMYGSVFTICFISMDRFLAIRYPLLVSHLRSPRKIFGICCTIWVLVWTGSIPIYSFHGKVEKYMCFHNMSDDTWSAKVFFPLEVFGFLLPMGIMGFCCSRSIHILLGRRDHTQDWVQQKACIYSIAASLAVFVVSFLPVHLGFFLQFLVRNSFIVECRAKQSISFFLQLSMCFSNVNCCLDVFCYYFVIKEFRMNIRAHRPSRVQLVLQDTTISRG
T1 sequence (P21554 whole entry): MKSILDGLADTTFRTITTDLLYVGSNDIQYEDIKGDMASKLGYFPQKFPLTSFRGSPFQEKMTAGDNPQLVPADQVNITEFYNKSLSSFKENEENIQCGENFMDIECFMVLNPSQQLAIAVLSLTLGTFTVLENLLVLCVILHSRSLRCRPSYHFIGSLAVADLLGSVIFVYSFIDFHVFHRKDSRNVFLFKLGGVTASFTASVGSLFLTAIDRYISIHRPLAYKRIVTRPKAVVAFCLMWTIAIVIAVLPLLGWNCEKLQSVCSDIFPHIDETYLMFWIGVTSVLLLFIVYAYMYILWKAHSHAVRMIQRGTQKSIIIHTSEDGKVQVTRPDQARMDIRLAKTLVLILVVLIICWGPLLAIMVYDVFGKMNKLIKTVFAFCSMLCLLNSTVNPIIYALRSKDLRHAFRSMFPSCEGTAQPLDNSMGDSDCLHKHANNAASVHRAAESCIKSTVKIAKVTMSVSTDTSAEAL

What is called Ki is the equilibrium dissociation constant of an inhibitor or competing ligand from its target. For `O=C(Oc1cccc2cccnc12)c1cn(CC2CCCCC2)c2ccccc12` [BB-22], the Ki in assay [1] is 0.217 nM.
As a reminder, the IC50 is the concentration that inhibits the measured activity by half. Turning to `CCc1ccc(C(=O)c2cn(CCCCCF)c3ccccc23)c2ccccc12` [EAM-2201], in [2], the IC50 was 1860 nM.
For orientation: EC50 means the concentration that produces a half-maximal response. As for `COC(=O)[C@@H](NC(=O)c1nn(Cc2ccc(F)cc2)c2ccccc12)C(C)(C)C` [compound 12, MDMB-FUBINACA], the EC50 in assay [3] was 0.0641 nM; in [5] it was 3.9 nM; in assay [6] it was 55 nM; in [7], more than 10000 nM; in assay [9], 0.756 nM; in [10], more than 10000 nM. Further, the hypothermal response result in assay [4] is “highest hypothermal response”. In addition, the 50% inhibitory concentration (IC50) in assay [7] and in [10] was more than 10000 nM in each case. The “Human GPR18 % activation” value in assay [7] (agonist mode) is 18%. In [7] (antagonist mode), the “Human GPR18 % inhibition” value is 31%. In addition, the Ki in assay [8] turned out to be 0.0985 ± 0.0291 nM; in [11], 0.13 ± 0.01 nM. In [10] (value in parentheses), the “Human GPR55 % inhibition” value was 30%.
As to `O=C(c1cccc2ccccc12)c1nc2ccccc2n1CCCCCF` [compound 42, FUBIMINA], in assay [3] (setting [15]), the “CB1 receptor activation in cAMP accumulation assay (in words)” value was “partial activation”. Also, the Ki in [12] was 23.5 nM; in assay [13] it was 296 nM; in [8] it was 502 ± 181 nM; in [11], 99 ± 28.4 nM. For the same compound, the “Human GPR18 % activation” value in [7] (agonist mode) was found to be 42%. The EC50 in assay [7] (agonist mode, read-out: Human GPR18 EC50) is more than 10000 nM; in [14], 2470 nM; in [10] (agonist mode, read-out: Human GPR55 EC50), more than 10000 nM. Besides, the “Human GPR18 % inhibition” value in assay [7] (antagonist mode) was determined as 14%. Besides, the IC50 in assay [7] (antagonist mode, read-out: Human GPR18 IC50) is more than 10000 nM; in assay [10] (antagonist mode versus lysophosphatidylinositol (LPI, 1 µM), read-out: Human GPR55 IC50) it was more than 10000 nM. Also, in assay [9] (setting [15]), the “CB2 receptor activation in cAMP accumulation assay (in words)” value is “partial activation”. Moreover, the “Human GPR55 % activation” value in [10] (agonist mode, value in parentheses) is reported as 16%. The “Human GPR55 % inhibition” value in [10] (value in parentheses) amounted to 44%.
